Laboratory results as given in patent US10208056B2, “Condensed tricyclic compounds as protein kinase inhibitors” (FUNDACIÓN DEL SECTOR PÚBLICO ESTATAL CENTRO NACIONAL DE …, priority 2015, dated 2019).

Assays:
SKMEL19 = test: Combination assay, SKMEL19; type: cell-based; details: Homo sapiens, SK-MEL19; SKMEL19, chemotherapeutic alone; read-out: Chemo GI50
Experimental: (§1) The combination index (CI) of combinations of certain example compounds and various chemotherapeutic agents in the CellTitetI-Glo® in vitro cell proliferation assays may be tested. A combination index score is calculated by the Chou and Talalay method (CalcuSyn software, Biosoft). The strength of synergy is scored using the ranking system Chou and Talalay: CI less than 0.8 indicates synergy, CI between 0.8 and 1.2 indicates additivity and CI greater than 1.2 indicates antagonism.
(§2) The EC50 values of representative combinations are also calculated. The individually measured EC50 values of the chemotherapeutic agent and the example compounds are compared to the EC50 value of the combination. The cell lines are characterised by tumor type. Combination assays are performed as described in: “Pim 1 kinase inhibitor ETP-45299 suppresses cellular proliferation and synergizes with PI3K inhibition”. Blanco-Aparicio, Carmen; Collazo, Ana Maria Garcia; Oyarzabal, Julen; Leal, Juan F.; Albaran, Maria Isabel; Lima, Francisco Ramos; Pequeno, Belen; Ajenjo, Nuria; Becerra, Mercedes; Alfonso, Patricia; Reymundo, Maria Isabel; Palacios, Irene; Mateos, Genoveva; Quinones, Helena; Corrionero, Ana; Carnero, Amancio; Pevarello, Paolo; Lopez, Ana Rodriguez; Fominaya, Jesus; Pastor, Joaquin; Bischoff, James R. Cancer Letters (Shannon, Ireland) 2011, 300(2), 145-153

HCT116 = test: Combination assay, HCT116; type: cell-based; details: Homo sapiens, HCT-116; HCT116, chemotherapeutic alone; read-out: Chemo GI50
Experimental: as §1, §2

DU145 = test: Combination assay, DU145; type: cell-based; details: Homo sapiens, DU-145; DU145, chemotherapeutic alone; read-out: Chemo GI50
Experimental: as §1
The EC50 values of representative combinations are also calculated. The individually measured EC50 values of the chemotherapeutic agent and the example compounds are compared to the EC50 value of the combination. The cell lines are characterised by tumor type. […] Blanco-Aparicio, Carmen; Collazo, Ana Maria Garcia; Oyarzabal, Julen; Leal, Juan F.; Albaran, Maria Isabel; Lima, Francisco Ramos; Pequeno, Belen; Ajenjo, Nuria; Becerra, Mercedes; Alfonso, Patricia; Reymundo, Maria Isabel; Palacios, Irene; Mateos, Genoveva; Quinones, Helena; Corrionero, Ana; Carnero, Amancio; Pevarello, Paolo; Lopez, Ana Rodriguez; Fominaya, Jesus; Pastor, Joaquin; Bischoff, James R. Cancer Letters (Shannon, Ireland) 2011, 300(2), 145-153

BXPC-3 = test: Combination assay, BXPC-3; type: cell-based; details: Homo sapiens; BXPC-3, chemotherapeutic alone; read-out: Chemo GI50
Experimental: as §1, §2

SW620 [1] = test: Combination assay, SW620; type: cell-based, human; details: Homo sapiens, SW-620; SW620, chemotherapeutic alone; read-out: Chemo GI50
Experimental: as §1, §2

SW620 [2] = test: In vitro cell proliferation assay (CellTiter-Glo), SW620; type: cell-based, human; details: Homo sapiens, SW-620; growth inhibition, semiquantitative; read-out: GI50 SW620
SW620 cells = test: Colony formation assay; type: cell-based, human; details: SW620 cells treated 11 days
Experimental: The in vitro potency of the compounds was measured by colony formation assays. SW620 cells in logarithmic growth phase are plated at 800 cells per well in 6-well plates (Solmeglas 13118) in RPMI media (Sigma-Aldrich R6504) supplemented with 10% foetal bovine serum (Sigma-Aldrich F7524), Penicillin/Streptomycin solution diluted 1:100 (Gibco 15070-063), and fungizone (Gibco, 15290-018), and allowed to adhere overnight at 37° C. in 5% CO2. Compounds are then added to the cell media from a final concentration of 10 μM in 10-fold serial dilutions and the cells are incubated at 37° C. in 5% CO2. Every three days the medium is changed by fresh medium and compounds are added again. After 11 days, colonies are washed with PBS and fixed in 0.5% crystal violet (Sigma-Aldrich Ref. V5265), 6% glutaraldehide (Sigma-Aldrich Ref. G5882) for 30 minutes. After extensive washing, colonies are dissolved in 2 ml of 10% glacial acetic acid (Sigma-Aldrich Ref. 537020) and absorbance at 590 nm is measured in the Victor 1420 Multilabel Counter (Perkin Elmer). The absorbance in cells treated with DMSO is taken as hundred percent of proliferation. The percentage of proliferation is finally plotted against concentration for each compound and EC50s for colony formation inhibition are calculated using ActivityBase from IDBS.

Molm13 = test: In vitro cell proliferation assay (CellTiter-Glo), Molm13; type: cell-based; details: Homo sapiens, MOLM-13; growth inhibition, semiquantitative; read-out: GI50 Molm13
CDK8/Cyclin C = CDK8/Cyclin C (Homo sapiens (Human), UniProt P49336); test: CDK8/Cyclin C binding assay (LanthaScreen Eu-Kinase Binding Assay); details: binding assay
Chain of CDK8/Cyclin C (P49336 whole entry): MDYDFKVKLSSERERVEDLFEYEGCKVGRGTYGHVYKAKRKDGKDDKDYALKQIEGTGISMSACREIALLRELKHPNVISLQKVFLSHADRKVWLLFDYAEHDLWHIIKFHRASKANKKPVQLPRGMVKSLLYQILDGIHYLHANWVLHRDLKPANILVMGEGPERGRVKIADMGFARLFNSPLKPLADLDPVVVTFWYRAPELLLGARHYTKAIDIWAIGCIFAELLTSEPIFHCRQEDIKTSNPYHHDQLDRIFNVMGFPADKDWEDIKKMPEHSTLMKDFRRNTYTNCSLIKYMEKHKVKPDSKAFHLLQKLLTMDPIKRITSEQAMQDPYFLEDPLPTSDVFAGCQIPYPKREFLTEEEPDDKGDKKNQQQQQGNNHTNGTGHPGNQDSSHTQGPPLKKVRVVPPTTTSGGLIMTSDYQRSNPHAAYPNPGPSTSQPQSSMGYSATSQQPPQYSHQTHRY
Chain of CDK8/Cyclin C (P24863 whole entry partner): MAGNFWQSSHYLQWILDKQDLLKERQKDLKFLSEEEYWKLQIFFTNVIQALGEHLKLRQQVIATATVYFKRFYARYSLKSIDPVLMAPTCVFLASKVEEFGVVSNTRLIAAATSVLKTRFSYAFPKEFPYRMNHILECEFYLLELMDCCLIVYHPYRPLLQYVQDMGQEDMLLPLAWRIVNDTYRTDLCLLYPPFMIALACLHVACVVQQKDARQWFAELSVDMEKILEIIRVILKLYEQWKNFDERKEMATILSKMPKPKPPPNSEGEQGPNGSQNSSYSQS
Experimental: The enzyme has been purchase from Invitrogen (PV4402) as a dimer of full-length His-tagged recombinant human proteins.
Assays were performed in 384-well plates. The final read out was generated using an EnVision plate reader (Perkin-Elmer).

MDA-MB-231 = test: In vitro cell proliferation assay (CellTiter-Glo), MDA-MB-231; type: cell-based; details: Homo sapiens, MDA-MB-231; growth inhibition, semiquantitative; read-out: GI50 MDA-MB-231
CDK19/Cyclin C = CDK19/Cyclin C (Homo sapiens (Human), UniProt Q9BWU1); test: CDK19/Cyclin C binding assay (LanthaScreen Eu-Kinase Binding Assay); details: read-out: CDK19-CYCC IC50
Chain of CDK19/Cyclin C (Q9BWU1 whole entry): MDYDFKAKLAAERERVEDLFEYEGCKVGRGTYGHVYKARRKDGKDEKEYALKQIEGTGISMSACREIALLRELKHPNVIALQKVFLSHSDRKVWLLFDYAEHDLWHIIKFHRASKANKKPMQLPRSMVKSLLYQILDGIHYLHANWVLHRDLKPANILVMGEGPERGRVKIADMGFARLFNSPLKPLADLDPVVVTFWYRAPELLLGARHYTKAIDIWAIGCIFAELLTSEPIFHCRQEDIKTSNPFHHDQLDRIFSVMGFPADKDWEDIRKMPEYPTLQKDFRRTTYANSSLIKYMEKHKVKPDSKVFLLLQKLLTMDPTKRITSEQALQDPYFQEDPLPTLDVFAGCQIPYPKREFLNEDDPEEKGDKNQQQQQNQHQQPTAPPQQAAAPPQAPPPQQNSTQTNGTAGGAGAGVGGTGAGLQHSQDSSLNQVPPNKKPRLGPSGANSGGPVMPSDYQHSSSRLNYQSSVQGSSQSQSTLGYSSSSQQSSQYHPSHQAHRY
Chain of CDK19/Cyclin C (P24863 whole entry partner): as the sequence (P24863 whole entry partner) above
Procedure, shortened: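 LanthaScreen TR-FRET tracer-displacement format with 2 nM Cdk19-Cyclin C, 20 nM tracer and 2 nM Eu-anti-GST antibody. The buffer was 50 mM HEPES pH 7.5, 10 mM MgCl2, 1 mM EGTA, 0.01% Brij-35, with 1% DMSO final. Compounds were tested as 1:3 serial dilutions and incubated for 60 min at 25 °C.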

intracellular CDK8 [3] = target: T1, intracellular CDK8 (Homo sapiens (Human), UniProt P49336); test: Endogenous phosphoSTAT1 inhibition in SW620 cells growing in 10% FBS; type: cell-based; details: semiquantitative, read-out: SW620 P-STAT1(S727)
T1 sequence (P49336 whole entry): as the sequence (P49336 whole entry) above
T1 sequence (P24863 whole entry partner): as the sequence (P24863 whole entry partner) above
T1 sequence (Q93074 whole entry partner): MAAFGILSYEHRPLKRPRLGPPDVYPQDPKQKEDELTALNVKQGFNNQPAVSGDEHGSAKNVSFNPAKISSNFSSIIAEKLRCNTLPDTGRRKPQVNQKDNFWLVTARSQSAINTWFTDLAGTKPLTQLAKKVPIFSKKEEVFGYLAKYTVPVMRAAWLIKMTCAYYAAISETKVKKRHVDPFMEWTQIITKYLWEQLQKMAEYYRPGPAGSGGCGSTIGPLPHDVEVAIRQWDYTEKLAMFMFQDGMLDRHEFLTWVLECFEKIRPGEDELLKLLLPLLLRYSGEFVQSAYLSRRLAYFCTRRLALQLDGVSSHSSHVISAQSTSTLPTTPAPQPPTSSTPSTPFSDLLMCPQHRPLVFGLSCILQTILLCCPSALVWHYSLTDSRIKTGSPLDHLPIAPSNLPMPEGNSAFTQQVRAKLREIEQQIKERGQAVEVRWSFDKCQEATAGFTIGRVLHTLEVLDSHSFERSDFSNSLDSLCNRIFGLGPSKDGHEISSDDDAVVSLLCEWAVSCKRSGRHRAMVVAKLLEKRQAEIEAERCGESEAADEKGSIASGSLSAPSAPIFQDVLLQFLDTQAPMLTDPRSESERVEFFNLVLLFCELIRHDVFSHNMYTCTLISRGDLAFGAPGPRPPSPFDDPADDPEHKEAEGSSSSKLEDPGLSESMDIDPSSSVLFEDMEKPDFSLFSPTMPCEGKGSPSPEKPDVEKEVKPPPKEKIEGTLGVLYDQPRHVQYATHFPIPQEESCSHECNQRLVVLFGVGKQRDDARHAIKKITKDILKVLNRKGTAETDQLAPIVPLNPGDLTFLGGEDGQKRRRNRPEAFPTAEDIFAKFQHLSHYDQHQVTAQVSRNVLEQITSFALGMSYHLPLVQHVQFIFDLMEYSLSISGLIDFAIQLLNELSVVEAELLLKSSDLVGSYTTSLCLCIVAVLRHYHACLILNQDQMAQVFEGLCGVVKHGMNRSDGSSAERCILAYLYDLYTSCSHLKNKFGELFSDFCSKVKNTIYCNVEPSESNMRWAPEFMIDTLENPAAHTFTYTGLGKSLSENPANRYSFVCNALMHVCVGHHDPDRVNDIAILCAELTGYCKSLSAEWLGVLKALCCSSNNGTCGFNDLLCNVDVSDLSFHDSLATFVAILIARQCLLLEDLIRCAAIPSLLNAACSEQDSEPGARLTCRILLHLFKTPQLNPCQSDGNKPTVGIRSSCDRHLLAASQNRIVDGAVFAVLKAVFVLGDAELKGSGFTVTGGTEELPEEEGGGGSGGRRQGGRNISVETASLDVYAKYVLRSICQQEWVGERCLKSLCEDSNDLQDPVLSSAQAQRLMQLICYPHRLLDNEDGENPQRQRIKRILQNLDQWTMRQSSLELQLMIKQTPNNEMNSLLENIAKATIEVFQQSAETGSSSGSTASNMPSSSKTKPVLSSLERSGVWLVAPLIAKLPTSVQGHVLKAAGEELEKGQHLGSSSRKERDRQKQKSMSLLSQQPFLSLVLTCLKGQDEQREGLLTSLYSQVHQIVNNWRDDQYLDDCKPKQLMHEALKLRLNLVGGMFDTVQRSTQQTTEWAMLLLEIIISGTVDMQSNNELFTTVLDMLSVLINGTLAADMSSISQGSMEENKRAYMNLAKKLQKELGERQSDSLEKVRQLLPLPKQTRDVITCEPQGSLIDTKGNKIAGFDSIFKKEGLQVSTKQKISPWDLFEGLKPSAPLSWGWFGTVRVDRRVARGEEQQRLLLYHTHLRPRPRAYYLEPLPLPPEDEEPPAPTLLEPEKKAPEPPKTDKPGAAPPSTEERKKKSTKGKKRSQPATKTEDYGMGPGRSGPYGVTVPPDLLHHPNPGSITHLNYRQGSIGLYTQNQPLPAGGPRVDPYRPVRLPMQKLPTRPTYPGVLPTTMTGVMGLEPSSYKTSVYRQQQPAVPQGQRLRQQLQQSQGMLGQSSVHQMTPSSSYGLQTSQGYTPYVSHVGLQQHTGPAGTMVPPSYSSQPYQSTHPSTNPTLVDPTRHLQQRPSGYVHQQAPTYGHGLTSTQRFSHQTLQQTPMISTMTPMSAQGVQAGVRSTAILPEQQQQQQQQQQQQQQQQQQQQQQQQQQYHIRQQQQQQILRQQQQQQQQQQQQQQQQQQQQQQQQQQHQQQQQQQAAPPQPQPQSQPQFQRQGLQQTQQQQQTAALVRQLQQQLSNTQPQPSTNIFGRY
Experimental: (§3) Endogenous phosphoSTAT1 inhibition can be screened in cells growing in 10% FBS. Cells are plated as described before and treated for 8 h with compounds as described before. Then cells are lysated and phospho STAT1 is evaluated as described before. The percentage of phosphorylated STAT1 vs total STAT1 in cells treated with DMSO is taken as hundred percent of phosphorylation. The percentage of STAT1 phosphorylation is finally plotted against concentration for each compound and EC50s for intracellular CDK8 inhibition are calculated using ActivityBase from IDBS.

MV4:11 = test: In vitro cell proliferation assay (CellTiter-Glo), MV4:11; type: cell-based; details: Homo sapiens, MV4-11; growth inhibition, semiquantitative; read-out: GI50 MV4:11
intracellular CDK8 [4] = target: T1, intracellular CDK8; test: Cellular CDK8 inhibition assay, western blot P-STAT1 (S727) in IFN-γ treated SW620 cells; type: cell-based; details: SW620, IFNγ treated, semiquantitative; read-out: SW620 P-STAT1(S727) w IFNγ
Experimental: Compounds can be screened for their ability to inhibit intracellular CDK8 using a western blot assay to detect phosphorylation of the CDK8 substrate STAT1 (S727) in IFN-γ treated cells. SW620 cells are plated at 1*10^6 cells per well in 6-well plates (Solmeglas 13118) in RPMI media (Sigma-Aldrich R6504) supplemented with 10% foetal bovine serum (Sigma-Aldrich F7524), Penicillin/Streptomycin solution diluted 1:100 (Gibco 15070-063), and fungizone (Gibco, 15290-018), and allowed to adhere overnight at 37° C. in 5% CO2. Compounds are then added to the cell media from a final concentration of 10 μM in 10-fold serial dilutions and the cells are incubated at 37° C. in 5% CO2. After 1 hour, IFNγ (R&D systems Ref. RYD-285-IF-100) is added to a final concentration of […]. After 3 hours of treatment with IFNγ, the cells are washed in PBS, lysed adding 100 μl of protein lysis buffer (62.5 mM Tris pH 6.8 al 6.25%, 2% SDS y 10% glycerol) incubation 10 minutes at room temperature and heating at 95° C. 10 min. The protein content of the lysates is determined by DC protein assay (Biorad, Ref. 5000116). The proteins are resolved by SDS-PAGE and transferred to nitrocellulose membrane (VWR International eurolab, Ref. 732-4007). The membranes are incubated overnight at 4° C. with antibodies specific for total STAT1 (BD Transduction laboratory #610115), phosphoserine-727 STAT1 (Cell Signaling Ref. 9177) they are washed and then incubated with IRDye800 conjugated anti-mouse (Pierce/Cultek, 35521) and Alexa Fluor 680 goat anti-rabbit IgG secondary antibodies (Invitrogen, A21076). The bands are visualized and quantified using an Odyssey infrared imaging system (Li-Cor Biosciences). The percentage of phosphorylated STAT1 vs total STAT1 in cells treated with IFNγ is taken as hundred percent of phosphorylation. The percentage of STAT1 phosphorylation is finally plotted against concentration for each compound and EC50s for intracellular CDK8 inhibition are calculated using ActivityBase from IDBS.

Haspin kinase = Haspin kinase (Homo sapiens (Human), UniProt Q8TF76); test: Haspin kinase assay (ADP-Glo); type: biochemical; details: ATP 150 μM
Chain of Haspin kinase (Q8TF76 484-798): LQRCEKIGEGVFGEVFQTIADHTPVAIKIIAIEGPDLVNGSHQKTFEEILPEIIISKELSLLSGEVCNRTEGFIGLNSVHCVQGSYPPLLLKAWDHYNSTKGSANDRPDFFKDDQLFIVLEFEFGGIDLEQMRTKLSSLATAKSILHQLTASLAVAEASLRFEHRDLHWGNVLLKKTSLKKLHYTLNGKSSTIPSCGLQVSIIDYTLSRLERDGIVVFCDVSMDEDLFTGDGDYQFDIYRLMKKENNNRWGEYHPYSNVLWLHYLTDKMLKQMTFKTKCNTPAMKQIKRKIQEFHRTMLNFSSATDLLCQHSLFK
Procedure, shortened: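 ADP-Glo luminescence measured the intrinsic ATPase activity, without peptide substrate, of the GST-tagged human Haspin kinase domain (20 nM) at 150 μM ATP. Reactions ran 60 min at 30 °C in HEPES pH 7.4 buffer with 10 mM MgCl2 and 1% DMSO. Inhibition was calculated against no-compound controls across 1:3 dilution series.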

intracellular HASPIN [5] = target: T2, intracellular HASPIN (Homo sapiens (Human), UniProt Q8TF76); test: Endogenous phosphoH3 inhibition in SW620 cells growing in 10% FBS; type: cell-based; details: semiquantitative, read-out: SW620 pH3(T3)
T2 sequence (Q8TF76 whole entry): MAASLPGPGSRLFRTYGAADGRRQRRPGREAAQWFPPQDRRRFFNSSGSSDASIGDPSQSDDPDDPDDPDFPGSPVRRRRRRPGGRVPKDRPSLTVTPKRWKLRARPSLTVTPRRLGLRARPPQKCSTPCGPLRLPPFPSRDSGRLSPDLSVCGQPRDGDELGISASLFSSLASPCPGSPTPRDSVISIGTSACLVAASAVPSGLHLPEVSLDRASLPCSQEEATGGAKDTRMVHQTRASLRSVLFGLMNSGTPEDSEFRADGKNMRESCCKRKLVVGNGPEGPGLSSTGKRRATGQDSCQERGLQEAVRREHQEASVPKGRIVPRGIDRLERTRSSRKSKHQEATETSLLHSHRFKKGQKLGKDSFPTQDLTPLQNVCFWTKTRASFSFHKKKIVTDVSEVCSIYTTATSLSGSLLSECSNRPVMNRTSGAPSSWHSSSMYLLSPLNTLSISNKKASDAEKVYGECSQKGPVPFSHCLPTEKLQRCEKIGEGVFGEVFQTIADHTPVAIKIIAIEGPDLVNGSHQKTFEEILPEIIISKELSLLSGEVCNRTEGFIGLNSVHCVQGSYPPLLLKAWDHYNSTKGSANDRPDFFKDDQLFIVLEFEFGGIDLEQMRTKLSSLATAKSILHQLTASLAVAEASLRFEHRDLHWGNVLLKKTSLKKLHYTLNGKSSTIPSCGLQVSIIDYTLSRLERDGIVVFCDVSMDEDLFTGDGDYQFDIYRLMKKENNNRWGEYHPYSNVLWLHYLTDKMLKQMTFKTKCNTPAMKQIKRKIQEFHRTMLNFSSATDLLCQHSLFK
Experimental: as §3, with “phosphoH3” for “phosphoSTAT1”, “H3” for “STAT1 is”, “H3” for “STAT1”, “HASPIN” for “CDK8”

intracellular HASPIN [6] = target: T2, intracellular HASPIN; test: Cellular HASPIN inhibition assay, western blot phospho H3T3 in synchronized SW620 cells; type: cell-based; details: semiquantitative, read-out: SW620 PH3(T3) in synchronized cells
Experimental: Compounds can be screened for their ability to inhibit intracellular HASPIN using a western blot assay to detect phosphorylation of the HASPIN substrate H3T3 in synchronized cells. SW620 cells are plated at 200000 cells per well in 6-well plates (Solmeglas 13118) in RPMI media (Sigma-Aldrich R6504) supplemented with 10% foetal bovine serum (Sigma-Aldrich F7524), Penicillin/Streptomycin solution diluted 1:100 (Gibco 15070-063), and fungizone (Gibco, 15290-018), and allowed to adhere overnight at 37° C. in 5% CO2. Cells are then treated 16 h hours with Nocadazole (Sigma-Aldrich M1404) at 250 ng/ml to arrest them in mitosis. Proteasoma inhibitor MG132 (Sigma-Aldrich C2211) is added to a final concentration of […] to keep cells arrested in mitosis. Compounds are then added to the cell media from a final concentration of 10 μM in 10-fold serial dilutions and the cells are incubated at 37° C. in 5% CO2. After 1 hour and 30 minutes of treatment with the compounds, the cells are washed in PBS, lysed adding 100 μl of protein lysis buffer (62.5 mM Tris pH 6.8 al 6.25%, 2% SDS y 10% glycerol) incubation 10 minutes at room temperature and heating at 95° C. 10 min. The protein content of the lysates is determined by DC protein assay (Biorad, Ref. 5000116). The proteins are resolved by SDS-PAGE and transferred to nitrocellulose membrane (VWR International eurolab, Ref. 732-4007). The membranes are incubated overnight at 4° C. with antibodies specific for total H3 (Millipore #07424), phosphothreonine-3 H3 (Cell Signaling Ref. 14269) they are washed and then incubated with IRDye800 conjugated anti-mouse (Pierce/Cultek, 35521) and Alexa Fluor 680 goat anti-rabbit IgG secondary antibodies (Invitrogen, A21076). The bands are visualized and quantified using an Odyssey infrared imaging system (Li-Cor Biosciences). The percentage of phosphorylated H3 vs total H3 in synchronized cells is taken as hundred percent of phosphorylation. The percentage of H3 phosphorylation is finally plotted against concentration for each compound and EC50s for intracellular HASPIN inhibition are calculated using ActivityBase from IDBS.

Row | Structure (SMILES) | GI50 (SKMEL19) | GI50 (HCT116) | GI50 (DU145) | GI50 (BXPC-3) | GI50 (SW620 [1]) | GI50 (SW620 [2]) | effect in colony forming assay (SW620 cells) | GI50 (Molm13) | IC50 (CDK8/Cyclin C) | GI50 (MDA-MB-231) | IC50 (CDK19/Cyclin C) | EC50 (intracellular CDK8 [3]) | GI50 (MV4:11) | EC50 (intracellular CDK8 [4]) | IC50 (Haspin kinase) | EC50 (intracellular HASPIN [5]) | EC50 (intracellular HASPIN [6])
1 | C[C@@H](Oc1cc(-c2cnn(C3CCNCC3)c2)cnc1N)c1c(Cl)ccc(F)c1Cl [Crizotinib, crizotinib, reference compound] | 5000 nM | 5000 nM | 20000 nM | 5000 nM | 1000 nM | – | – | – | – | – | – | – | – | – | – | – | –
2 | NC(=O)c1cc2c([nH]1)-c1ccncc1O[C@H]2C1CCCCC1 (single isomer, unassigned) [Example 70] | – | – | – | – | – | 1000 to 10000 nM | dose-dependent effect | 1000 to 10000 nM | 8.5 nM | 10000 to 100000 nM | 7.14 nM | < 500 nM | < 1000 nM | < 500 nM | – | – | –
3 | CCn1c(C(N)=O)cc2c1-c1ccncc1OC21CCNCC1 [Example 91] | – | – | – | – | – | 1000 to 10000 nM | – | < 1000 nM | 301 nM | 1000 to 10000 nM | – | – | < 1000 nM | – | 16.5 nM | < 500 nM | < 500 nM
4 | CCn1c(C(N)=O)cc2c1-c1ccncc1OC21CCN(CC(F)(F)F)CC1 [Example 79] | – | – | – | – | – | 1000 to 10000 nM | – | < 1000 nM | 1.11 nM | 1000 to 10000 nM | 3.14 nM | < 500 nM | < 1000 nM | – | 38.6 nM | < 500 nM | –
5 | CCn1c(C(N)=O)cc2c1-c1ccncc1OC21CCOCC1 [Example 82] | – | – | – | – | – | 1000 to 10000 nM | – | < 1000 nM | 2.19 nM | 1000 to 10000 nM | 4.58 nM | < 500 nM | < 1000 nM | – | 12.8 nM | < 500 nM | –
